Data: the NIST ThermoML archive (doi:10.1021/acs.jced.7b00898)

Assay: xn = mol fraction of the nth substance listed
Details: 100 kPa, Liquid; for electrical conductivity: Alternating current cell with electrodes; for viscosity: Falling or rolling sphere viscometry; for mass density: Vibrating tube method

C[n+]1ccn(CCCC#N)c1.F[B-](F)(F)F [1-butyronitrile-3-methylimidazolium tetrafluoroborate] + CC#N
Details	electrical conductivity [S/m]	mass density [kg/m3]	viscosity [mPa·s]
288.15 K, x1 = 0.1004	3.71	951.03	1.783
288.15 K, x1 = 0.2003	2.62	1058.56	5.545
288.15 K, x1 = 0.3013	1.68	1131.24	13.17
288.15 K, x1 = 0.3996	1.05	1179.83	30.38
288.15 K, x1 = 0.4999	0.558	1218.22	72.81
288.15 K, x1 = 0.5996	0.365	1248.27	105.8
288.15 K, x1 = 0.7001	0.28	1271.85	150.9
288.15 K, x1 = 0.8024	0.157	1289.62	287
288.15 K, x1 = 0.8885	0.126	1302.35	372.8
288.15 K, x1 = 1	0.058	1316.07	590.6
293.15 K, x1 = 0.1004	3.98	946.91	1.645
293.15 K, x1 = 0.2003	2.89	1054.28	4.901
293.15 K, x1 = 0.3013	1.93	1126.73	11.15
293.15 K, x1 = 0.3996	1.24	1175.56	24.74
293.15 K, x1 = 0.4999	0.685	1214.12	56.55
293.15 K, x1 = 0.5996	0.467	1244.16	80.64
293.15 K, x1 = 0.7001	0.352	1268.21	113.9
293.15 K, x1 = 0.8024	0.208	1286.11	207.7
293.15 K, x1 = 0.8885	0.174	1298.72	266.5
293.15 K, x1 = 1	0.085	1312.33	417.9
298.15 K, x1 = 0.1004	4.28	942.92	1.52
298.15 K, x1 = 0.2003	3.2	1049.89	4.361
298.15 K, x1 = 0.3013	2.21	1122.41	9.572
298.15 K, x1 = 0.3996	1.46	1171.47	20.18
298.15 K, x1 = 0.4999	0.834	1210.15	45.13
298.15 K, x1 = 0.5996	0.588	1240.19	62.96
298.15 K, x1 = 0.7001	0.47	1264.41	87.6
298.15 K, x1 = 0.8024	0.286	1282.71	154.3
298.15 K, x1 = 0.8885	0.236	1294.92	195.6
298.15 K, x1 = 1	0.123	1308.61	302.6
303.15 K, x1 = 0.1004	4.56	938.82	1.412
303.15 K, x1 = 0.2003	3.51	1045.59	3.908
303.15 K, x1 = 0.3013	2.5	1117.84	8.303
303.15 K, x1 = 0.3996	1.7	1167.21	16.91
303.15 K, x1 = 0.4999	0.997	1205.98	36.59
303.15 K, x1 = 0.5996	0.719	1236.29	50.09
303.15 K, x1 = 0.7001	0.585	1260.73	68.7
303.15 K, x1 = 0.8024	0.372	1279.28	117.1
303.15 K, x1 = 0.8885	0.308	1291.38	147
303.15 K, x1 = 1	0.171	1304.81	223.3
308.15 K, x1 = 0.1004	4.84	934.73	1.315
308.15 K, x1 = 0.2003	3.83	1041.36	3.529
308.15 K, x1 = 0.3013	2.8	1113.43	7.266
308.15 K, x1 = 0.3996	1.97	1163.02	14.47
308.15 K, x1 = 0.4999	1.19	1201.89	30.15
308.15 K, x1 = 0.5996	0.87	1232.29	40.62
308.15 K, x1 = 0.7001	0.719	1257.04	54.9
308.15 K, x1 = 0.8024	0.475	1275.69	90.99
308.15 K, x1 = 0.8885	0.392	1287.73	112.9
308.15 K, x1 = 1	0.231	1301.05	169.9
313.15 K, x1 = 0.1004	5.13	930.78	1.228
313.15 K, x1 = 0.2003	4.16	1037.03	3.204
313.15 K, x1 = 0.3013	3.1	1109.04	6.436
313.15 K, x1 = 0.3996	2.27	1158.93	12.49
313.15 K, x1 = 0.4999	1.4	1197.89	25.23
313.15 K, x1 = 0.5996	1.04	1228.43	33.47
313.15 K, x1 = 0.7001	0.87	1253.43	44.63
313.15 K, x1 = 0.8024	0.599	1272.33	71.79
313.15 K, x1 = 0.8885	0.491	1284.14	88.12
313.15 K, x1 = 1	0.305	1297.32	128.7
318.15 K, x1 = 0.1004	5.41	926.61	1.153
318.15 K, x1 = 0.2003	4.49	1032.73	2.936
318.15 K, x1 = 0.3013	3.4	1104.71	5.741
318.15 K, x1 = 0.3996	2.59	1154.62	10.85
318.15 K, x1 = 0.4999	1.63	1193.83	21.38
318.15 K, x1 = 0.5996	1.22	1224.39	28
318.15 K, x1 = 0.7001	1.04	1249.69	36.82
318.15 K, x1 = 0.8024	0.734	1268.86	57.48
318.15 K, x1 = 0.8885	0.603	1280.51	70.08
318.15 K, x1 = 1	0.393	1293.59	100.6
323.15 K, x1 = 0.1004	5.69	922.4	1.084
323.15 K, x1 = 0.2003	4.82	1028.51	2.695
323.15 K, x1 = 0.3013	3.7	1100.31	5.152
323.15 K, x1 = 0.3996	2.95	1150.56	9.38
323.15 K, x1 = 0.4999	1.87	1189.85	17.96
323.15 K, x1 = 0.5996	1.42	1220.51	23.76
323.15 K, x1 = 0.7001	1.22	1245.99	30.77
323.15 K, x1 = 0.8024	0.872	1265.38	47.05
323.15 K, x1 = 0.8885	0.73	1276.87	56.76
323.15 K, x1 = 1	0.498	1289.86	79.82
